Calls of active or inactive are those of the source. The rule behind the calls is not given here.
Tested on: S. cerevisiae tim23-1 mutant growth, luminescence
Assay: tim23-1 mutant yeast growth inhibitors, SAR follow-up, luminescence, S. cerevisiae (AID 602375)

| SMILES | IC50 |
| --- | --- |
| CN(C(=O)c1cccc(S(C)(=O)=O)c1)c1c(N)n(Cc2ccccc2)c(=O)[nH]c1=O | > 99 µM (inactive) |
| O=C(Nc1ccc(-c2cn3ccccc3n2)cc1)c1cccs1 | 0.897 µM |
| O=C(Nc1ccn[nH]1)c1cccc(OCc2cccnc2)c1 | > 99 µM (inactive) |
| COc1ccc(/C=C/C(=O)Nc2ccc3c(c2)CCC3)cc1OC | 1.72 µM |
| CCN(C(=O)c1cccc2ncccc12)c1c(N)n(Cc2ccccc2)c(=O)[nH]c1=O | > 99 µM (inactive) |
| O=C(Nc1ccc2nc(-c3ccco3)[nH]c2c1)c1cccs1 | 0.459 µM |
| O=C(Nc1ccc2nc(-c3ccc(Br)o3)[nH]c2c1)c1cccs1 | 0.882 µM |
| CC(C)(C)c1csc(NC(=O)c2ccc(Cl)s2)n1 | 17.3 µM |
| CCn1c(N2CCN(S(=O)(=O)c3ccc(OC)cc3)CC2)nc2ccccc21 | 3.69 µM |
| N/C(=N\OC(=O)c1ccc2ccccc2c1)c1ccc(I)cc1 | > 99 µM (inactive) |
| Cc1cccn2c(=O)cc(CSc3cc(C(=O)NC4CC4)c4ccccc4n3)nc12 | > 99 µM (inactive) |
| O=S(=O)(Nc1ccc(-c2cn3c(n2)SCC3)cc1)c1cccnc1 | > 99 µM (inactive) |
| O=c1cc(CSc2ccc(C(F)(F)F)cn2)nc2ccc(Br)cn12 | > 99 µM (inactive) |
| CCOc1ccc2nc(N3C(=O)CNC3=S)sc2c1 | > 99 µM (inactive) |
| O=C(O/N=C(/c1ccc(Br)cc1)N1CCOCC1)c1ccccc1 | 0.787 µM |
| Cc1c2c(n(Cc3ccco3)c1C)N=CN1CCS(=O)(=O)N=C21 | > 99 µM (inactive) |
| COc1ccc(C2N=C(c3ccccc3C)NO2)cc1O (stereo unspecified) | > 99 µM (inactive) |
| CC(=O)c1ccc2[nH]c3c(c2c1)CCCC3=O | > 99 µM (inactive) |
| CN1CCN(c2nc(-c3cccnc3)nc3ccccc23)CC1 | > 99 µM (inactive) |
| Cc1ccc(-c2nc3ccc(NC(=O)c4cccs4)cc3[nH]2)o1 | 1.42 µM |
| Cc1cc(OCC(=O)O/N=C(\N)Cc2ccc(Cl)cc2)ccc1Br | 3.69 µM |
| O=C(CSc1cccc[n+]1[O-])Nc1ccccc1Oc1ccccc1 | 1.06 µM |

| SMILES | IC50 |
| --- | --- |
| Cc1ccc(/C(N)=N/OC(=O)c2ccccc2)cc1F | 1.52 µM |
| Cc1ccc2nc(N3CCN(S(C)(=O)=O)CC3)[nH]c2c1 | > 99 µM (inactive) |
| Cc1cc2cc(CNC(=O)c3ccc(F)c(F)c3)ccc2[nH]1 | > 99 µM (inactive) |
| O=c1cc(CSc2ccccn2)nc2ccccn12 | > 99 µM (inactive) |
| CCN1CCc2nc3sc(C(=O)Nc4cc(Cl)ccc4OC)c(N)c3cc2C1 | > 99 µM (inactive) |
| Cc1nc(SCc2cc(=O)n3cc(Br)ccc3n2)c(C#N)c(C)c1C | > 99 µM (inactive) |
| Cc1nn(Cc2cccc(C(=O)O/N=C(\N)c3ccc(Cl)cc3)c2)c(C)c1Br | 2.65 µM |
| N#C/C(=C\c1ccc(Cl)cc1)C(=O)Nc1cccnc1 | 16 µM |
| N#Cc1ccc(C2N=C(c3ccccc3)NO2)cc1 (stereo unspecified) | > 99 µM (inactive) |
| Cc1ccc2nc(NC(=O)C3CCCN3S(C)(=O)=O)sc2c1 (stereo unspecified) | 91.9 µM |
| O=c1cc(C(F)F)oc2c1ccc1ccccc12 | > 99 µM (inactive) |
| CC(C)Cn1cnc2c(c(-c3ccccc3)c(-c3ccccc3)n2Cc2ccco2)c1=N | 21.6 µM |
| COc1ccc(/C(N)=N/OC(=O)c2ccc(C(F)(F)F)cc2)c(OC)c1 | > 99 µM (inactive) |
| O=C1OC(c2ccccc2)=N/C1=C\C=C\c1ccco1 | 2.44 µM |
| CCOc1ccc(C(=O)O/N=C(\N)c2ccc(OC)cc2)cc1OCC | 1.48 µM |
| CC(=O)c1ccc(NS(=O)(=O)c2c(C)nc3scc(C)n3c2=O)cc1 | 15.9 µM |
| N#Cc1c(-c2ccc([N+](=O)[O-])cc2)cc(-c2ccccc2)nc1N | > 99 µM (inactive) |
| COc1ccc(Cl)cc1NS(=O)(=O)c1c(C)nc2scc(C)n2c1=O | > 99 µM (inactive) |
| CCOc1cc2ccccc2cc1C(=O)O/N=C(\N)c1ccc(Cl)cc1 | 1.57 µM |
| Cc1nc2scc(C)n2c(=O)c1S(=O)(=O)Nc1ccc(N2CCOCC2)cc1 | 16.3 µM |
| Cc1nc2scc(C)n2c(=O)c1S(=O)(=O)Nc1cccc(O)c1 | > 99 µM (inactive) |
| Cc1csc(NC(=O)c2sc3nc4c(cc3c2N)CN(C)CC4)n1 | > 99 µM (inactive) |

| SMILES | IC50 |
| --- | --- |
| CC(=O)Nc1ccc(C(C(F)(F)F)(C(F)(F)F)C(F)(F)F)cc1 | > 99 µM (inactive) |
| Cc1ccc2nc(CS(=O)(=O)c3ncccc3Cl)cc(=O)n2c1 | > 99 µM (inactive) |
| O=c1cc(CSc2ccc(S(=O)(=O)N3CCCCC3)cn2)nc2ccc(Br)cn12 | 70.2 µM |
| O=C(Nc1nc2ccccc2s1)C1CCCN1S(=O)(=O)c1ccc(Cl)cc1 (stereo unspecified) | 12 µM |
| Cc1nc2scc(C)n2c(=O)c1S(=O)(=O)Nc1ccccc1 | > 99 µM (inactive) |
| CCN(CC)S(=O)(=O)c1ccc(C(=O)OCn2nnc3ccccc3c2=O)cc1 | 13 µM |
| Cn1c(SCc2cccc(/C(N)=N/OC(=O)c3ccc(Cl)cc3)c2)nnc1C(F)(F)F | 2.37 µM |
| Cc1nc2scc(C)n2c(=O)c1S(=O)(=O)Nc1ccc(F)cc1Cl | 52.7 µM |
| N/C(Cc1cccc2ccccc12)=N\OC(=O)COc1ccc(Cl)cc1Cl | 19.1 µM |
| N#Cc1c(-c2ccccc2)cc(-c2ccc(O)cc2)nc1N | 2.9 µM |
| N/C(=N\OC(=O)c1ccc(Cl)cc1)c1ccc(-c2csnn2)cc1 | > 99 µM (inactive) |
| O=C(NN=C/C=C\c1ccco1)c1cccs1 | 6.87 µM |
| O=C(Nc1ccn[nH]1)c1ccc(Br)cc1Cl | > 99 µM (inactive) |
| COc1ccc([N+](=O)[O-])cc1NS(=O)(=O)c1c(C)nc2scc(C)n2c1=O | > 99 µM (inactive) |
| COc1ccc2c(C)cc(SCc3cc(=O)n4cc(C)ccc4n3)nc2c1 | > 99 µM (inactive) |
| O=C(Nc1nc2c(s1)Cc1ccccc1-2)c1ccc(Br)s1 | > 99 µM (inactive) |
| O=C(CSCc1ccccc1)Nc1cc(S(=O)(=O)N2CCOCC2)ccc1Oc1ccccc1 | > 99 µM (inactive) |
| Cc1ccc2nc(CSc3ccc(S(=O)(=O)N4CCCC4)cn3)cc(=O)n2c1 | > 99 µM (inactive) |
| Cc1ccc2nc(CSc3nc(C)c(C)c(C)c3C(N)=O)cc(=O)n2c1 | 29.6 µM |
| Cc1nc2scc(C)n2c(=O)c1S(=O)(=O)Nc1ccc(N2CCN(S(C)(=O)=O)CC2)cc1 | > 99 µM (inactive) |
| Cc1nc2scc(C)n2c(=O)c1S(=O)(=O)Nc1ccc(OC(F)(F)F)cc1 | 16.5 µM |
| C(/C=C/c1ccccc1)=NNc1nc2ccccc2[nH]1 | 11.2 µM |

| SMILES | IC50 |
| --- | --- |
| N/C(Cc1ccc(Cl)cc1)=N\OC(=O)COc1ccccc1Cl | 4.54 µM |
| Cc1nc2scc(C)n2c(=O)c1S(=O)(=O)Nc1cc(C(F)(F)F)ccc1Cl | > 99 µM (inactive) |
| O=C(O)c1cccnc1SCc1cc(=O)n2cc(Br)ccc2n1 | > 99 µM (inactive) |
| O=C(N/N=C/C(Cl)=C\c1ccccc1)c1cccs1 | 2.3 µM |
| CC1(C)C=Cc2cc(/C(N)=N/OC(=O)c3ccccc3)ccc2O1 | 0.617 µM |
| N/C(=N\OC(=O)c1ccc(Cl)cc1)c1ccc(Cl)cc1 | 3.02 µM |
| Cc1nc2scc(C)n2c(=O)c1S(=O)(=O)Nc1ccc(Oc2ccc(Cl)cc2)cc1 | > 99 µM (inactive) |
| CCCN(C(=O)c1ccc([N+](=O)[O-])c(C)c1)c1c(N)n(Cc2ccccc2)c(=O)[nH]c1=O | 0.987 µM |
| N/C(=N\OC(=O)c1ccc(Cl)cc1)c1ccc2nonc2c1 | > 99 µM (inactive) |
| N/C(=N\OC(=O)c1ccc2ncsc2c1)c1ccc(Cl)cc1Cl | 1.48 µM |
| Cc1ccc(-c2nn(-c3ccccc3)cc2NC(=O)CCl)cc1 | 1.75 µM |
| N/C(=N\OC(=O)c1ccc2ncsc2c1)c1ccccc1 | 14.8 µM |
| CN1CCc2nc3sc(C(=O)C45CC6CC(CC(C6)C4)C5)c(N)c3cc2C1 | 18.1 µM |
| Cc1ccc(S(=O)(=O)Cc2cc(=O)n3ccccc3n2)nc1 | > 99 µM (inactive) |
| N/C(=N\OC(=O)c1ccc(Cl)cc1)c1ccc(Oc2ccc(C(F)(F)F)cn2)cc1 | 0.57 µM |
| Cc1ccc(-c2cc(NC(=O)c3c(C)noc3C)nc(-c3ccccc3)c2)cc1 | > 99 µM (inactive) |
| Cc1nc2scc(C)n2c(=O)c1S(=O)(=O)Nc1ccc(Cl)c(C(F)(F)F)c1 | > 99 µM (inactive) |
| N=c1c2c(-c3ccccc3)c(-c3ccccc3)n(Cc3ccco3)c2ncn1CCCN1CCOCC1 | > 99 µM (inactive) |
| Cc1nc2scc(C)n2c(=O)c1S(=O)(=O)Nc1ccc(N2CCN(C(=O)C(C)C)CC2)cc1 | > 99 µM (inactive) |
| Cc1nc2scc(C)n2c(=O)c1S(=O)(=O)Nc1ccc(N2CCOCC2)c(Cl)c1 | > 99 µM (inactive) |
